Laboratory results as given in EP1201661A1, “HETEROAROMATIC RING COMPOUNDS” (Sumitomo Pharmaceuticals Company, Limited, priority 1999, dated 2001).

System: adjuvant-induced arthritis
Experiment: Inhibition of adjuvant-induced arthritis (hind paw swelling)
Assay type: in vivo, Male SD rats
Conditions: 5 consecutive days from day 17 after adjuvant
Excerpt: Inhibition of adjuvant-induced arthritis
Male SD rats were used as test subjects. Heat-kllled Mycobacterium butyricum suspended in liquid paraffin in a concentration of 0.5% was subcutaneously injected into the right hind paw of each rat. After 17 days, animals showing the clear onset of secondary inflammation also in the left hind paw were selected, and each compound of the present invention suspended in a 0.5% methyl cellulose solution was orally administered to the animals for 5 consecutive days. The volume of each hind paw at the completion of the administration was compared with that at the beginning of the administration, and the swelling-inhibitory effect was evaluated by the difference between them.

[1] = oral dose 50 mg/kg, volume at completion vs beginning of administration

`CNC(=Nc1cc(C(C)c2cccc(C(=O)c3ccccc3)c2)ns1)N1CCOCC1.Cl` (stereo not shown) [Experiment 1, N'-{3-[1-(3-Benzoylphenyl)ethyl]-5-isothiazolyl}-N-methyl-4-morpholine carboximidamide hydrochloride] was tested, and the “Increase of edema volume (ml) Injected paw” value (“Increase … (ml) Injected paw” for short) [1] was 0.12 mL and the “Increase of edema volume (ml) Non-injected paw” value (shortened to “Increase … (ml) Non-injected paw”) [1] was 0.02 mL.
With `CC(c1ccc(-c2ccccc2)c(F)c1)c1cc(N=C(N)N2CCOCC2)n(C)n1.Cl.Cl` (stereo not shown) [Experiment 49, N'-{3-[1-(2-Fluoro[1,1'-biphenyl]-4-yl)ethyl]-1-methyl-1H-pyrazol-5-yl}-4-morpholinecarboximidamide dihydrochloride] the “Increase … (ml) Injected paw” value [1] was -0.24 mL and the “Increase … (ml) Non-injected paw” value [1] was -0.17 mL.
In the case of `CC(c1cccc(C(=O)c2ccccc2)c1)c1nc(N=C(N(C)C)N2CCOCC2)ns1.Cl` (stereo not shown) [Experiment 73, N'-{5-[1-(3-Benzoylphenyl)ethyl]-1,2,4-thiadiazol-3-yl}-N,N-dimethyl-4-morpholinecarboximidamide hydrochloride], the “Increase … (ml) Injected paw” value [1] is reported as -0.95 mL and the “Increase … (ml) Non-injected paw” value [1] is reported as -0.78 mL.
`CCNC(=Nc1nc(C(C)c2cccc(C(=O)c3ccccc3)c2)n[nH]1)N1CCOCC1.Cl` (stereo not shown) [Experiment 75, N'-{3-[1-(3-Benzoylphenyl)ethyl]-1H-1,2,4-triazol-5-yl}-N-ethyl-4-morpholinecarboximidamide hydrochloride] was tested, and the “Increase … (ml) Injected paw” value [1] was -1.08 mL and the “Increase … (ml) Non-injected paw” value [1] was -0.53 mL.
With `CC(c1cccc(C(=O)c2ccccc2)c1)c1n[nH]c(N)n1.Cl` (stereo not shown) [Experiment 320, {3-[1-(5-Amino-1H-1,2,4-triazol-3-yl)ethyl]phenyl}(phenyl)methanone hydrochloride] the “Increase … (ml) Injected paw” value (oral dose 25 mg/kg) was -1.20 mL and the “Increase … (ml) Non-injected paw” value (oral dose 25 mg/kg) was -0.53 mL.
